The text below walks through data of patent US8835617B2, “Polynucleotides encoding a human TRIM-Cyp fusion polypeptide, compositions thereof, and methods of using same” (priority 2008, dated 2014).

Like-named read-outs stand apart in the source and are kept apart here. Marks after values point to notes of the source that are not given here.

The test system of assay [1] is HIV-1. Conditions: U937, CEM-SS, SUP-T1, H9, HUH-7, CRFK, 293T. The text has this: (§1) Since the objective was to engineer a fully human HIV-1 restriction factor, hCypA was the fused at 10 different positions along the length of hT5α (FIG. 44A).
Assay [2] concerns cell-associated HIV-1. In words: hCD4+-Rag2-/-γc-/- mice infected with cell-associated HIV-1. It is filed as in vivo. The procedure:
Furthermore, the previous infections were initiated with cell-free HIV-1. […] Untransduced (GFP^−) CD4^+ cells from the same donor were cultured side by side and infected with CXCR4-tropic HIV-1 prior to infection of reconstituted mice. […] Peripheral blood was analyzed one, two, and three weeks after infection and mice were sacrificed three weeks after infection (FIG. 71A).

Assay [3] relates to HIV-1. Conditions: of CD45^+GFP^+ cells. An excerpt: HIV-1 infection spreads from cell to cell at high titer in complex lymphoid tissues with a specific hierarchy of T cell destruction and distinct kinetics in vivo (Douek et al., 2003). […] This mouse model takes advantage of the lack of functional B, T, and NK cells in Rag2^−/−γc^−/− mice and allows for improved engraftment of xenografts as well de novo intrathymic generation of human T cells (Baenziger et al., 2008; Mazurier et al., 1999). Briefly, CD34^+ hematopoietic stem and progenitor cells are enriched from cord blood of healthy donors by MACS and transplanted intrahepatically into irradiated, newborn Rag2^−/−γc^−/− mice (FIG. 63A). 2-4 months post-transplant, reconstitution of peripheral blood is assessed by flow cytometry, and mice with more that 5% hCD45^+ cells in peripheral blood are infected intraperitoneally (i.p.) with HIV-1 (FIG. 63A).
An aliquot of cells was maintained in culture with the subsequent addition of SCF, TPO, and Flt3L, and assessed for GFP-expression 72 hours post-transduction.
huRag2^−/−γc^−/− mice were generated as previously described^1. Briefly, fresh human cord blood was obtained with parent written informed consent from healthy full-term newborns (Department of Gynecology and Obstetrics, Ospedale San Giovanni, Bellinzona). […] Traggiai, E., et al. Development of a human adaptive immune system in cord blood cell-transplanted mice. […]

The test system of assay [4] is HIV-1. The following applies: quantitative PCR, Jurkat. The procedure:
as §1
Total cellular DNA was extracted from 2×10^6 Jurkat T cells using the DNeasy Blood and Tissue kit (Qiagen). qPCR was performed with the Applied Biosystems 7900HT system, using 250 ng total DNA and Taqman Gene Expression master mix (Applied Biosystems). Each experimental condition was performed in triplicate and data analyzed using the SDS software, version 2.2.2 (Applied Biosystems).

For assay [5], the system named is HIV-1. An excerpt: The timing of HIV-1 infection was changed to allow for a stabilization of engraftment prior to assessment of viral replication.
HIV-1 down-regulates cell-surface expression of CD4 (Chen et al., 1996). […] Finally, tissue sections of thymi were directly examined for human T cells (using anti-CD3 antibody) and HIV-1 p24 antigen.
The MLNs are closest to the site of HIV-1 infection (i.p), while the PLNs are further away.
Rag2^−/−γc^−/− mice on a BALB/c background (provided by M. Ito; Central Institute for Experimental Animals, Kawasaki, Japan) were bred and maintained under specific pathogen-free conditions in accordance with the guidelines of the animal facility at the Institute for Research in Biomedicine. CL2 MBP (clodronate) was from Roche Diagnostics (Mannheim, Germany). Preparation of liposomes containing CL2 MBP was done as described previously (Van Rooijen and Sanders, 1994). 6-10 week-old mice received 100 ul of clodronate liposomes intraperitoneally (i.p.) 24 hours prior to irradiation using a single sublethal dose of 4.0 Gray (Gy) from a Cesium 137 source (Biobeam 8000, STS GmbH, Braunschweig, Germany) at 3.75 Gy/min. […] CD4^+ T cell engraftment and maintenance in mice was measured by flow cytometry. To obtain peripheral blood cells and plasma, mice were bled from the retro-orbital venous sinus under anesthesia and red blood cells were lysed. When sacrificed, single cell suspensions from organs were prepared. For FACS analysis monoclonal antibodies against the following antigens were used: CD3 (UCHT1), CD4 (13B8.2), CD8 (B9.11), p24 (clone KC57) (all Immunotech/Beckman Coulter, Marseille, France), CD45 (HI30) (Caltag, Burlingame, Calif.). Intracellular staining for p24 was performed on single cell suspensions from mesenteric lymph nodes and thymus following staining with anti-CD3 antibody. Cells were washed, permeabilized, and fixed by treatment with BD Cytofix/Cytoperm (BD Pharmingen) and stained with anti-p24 antibody in BD Permwash solution (BD Pharmingen) following the manufacturer's instructions. Plasma HIV RNA concentrations were determined by Cobas Amplicor RT-PCR assay (Roche Diagnostics, Basel, Switzerland). Immunohistochemical stainings were performed as previously described (Baenziger et al., 2006). To assess nonspecific binding, tissue from untransplanted and uninfected transplanted mice was stained as controls.
Rag2^−/−γc^−/− mice on a BALB/c background (provided by M. Ito; Central Institute for Experimental Animals, Kawasaki, Japan) were bred and maintained under specific pathogen-free conditions in accordance with the guidelines of the animal facility at the Institute for Research in Biomedicine (Bellinzona) and the Swiss Federal Veterinary Office (Bern). […] CD4^+ T cell engraftment and maintenance in mice was measured by flow cytometry. […]

For the substance “hT5Cyp: human TRIM5α fused at serine 322 to human cyclophilin A, SEQ ID NO:12”, the “HIV-1 restriction in further cell lines” value in assay [1] was “restricted HIV-1”. In addition, in assay [2] (mouse, in vivo), the “p24^+ of total human T cells in the infected thymus” value amounted to 0.9% and the “protection of total CD3^+ T cell numbers in the thymus” value is reported as 3.7 fold. In addition, the “CD3^+ T cells in thymus” value in assay [2] (n=2) is 2×10^7. In addition, the “reduction in mean viral load vs hT5CypH126Q” value in assay [2] (one week post-infection) is on record as 9.7 fold. Further, in assay [2] (peripheral blood, three weeks post-infection), the “CD4^+ T cell numbers relative to initial levels” value is listed as at least 40%. In assay [2] (thymus), the “p24^+ of GFP^hi cells” value was “few”, the “p24^+ of GFP^neg/lo cells” value came to 3.2% and the “reduction in total numbers of GFP^− p24^+ cells vs hT5CypH126Q” value was above 3.3 fold. In assay [2] (two weeks post-infection), the “reduction in mean viral load vs hT5CypH126Q” value was found to be 4.3 fold. The “Post-infection GFP^+ CD3” value in assay [3] is listed as 0%. Moreover, the “accumulation of viral cDNA” value in assay [4] is reported as “blocked the accumulation of viral cDNA”. The “p24^+ transduced human T cells” value in assay [5] (MLN or PLN, CCR5-tropic HIV-1) is recorded as “Few if any”. In addition, in assay [5] (n=8 per group), the mean viral load is given as 1.6×10^5 (+/−1.1×10^5) copies viral RNA/ml plasma. For the same substance, the “down-regulation of cell surface CD4” value in assay [5] (thymi and lymph nodes) was “prevented the down-regulation of cell surface CD4”. Moreover, in assay [5] (thymi or mesenteric lymph nodes), the “p24^+ transduced human T cells” value is listed as “Few if any”.
